In brackets after ≈: the same amount, converted by molar mass. Like-named read-outs stand apart in the source and are kept apart here. Numbered stars: 1 amine (or outer) side, 2 acyl side, 3 side chain; on linkers, the order of the positions; unused ones are H or OH. Bridge positions count the residues as written; N and C are the ends. Side chains are listed from the residue outwards. Peptide text beside a SMILES is read from it. * marks the point of attachment. C20 diacid = O=C(O)CCCCCCCCCCCCCCCCCCC(=O)*; γGlu = O=C(O)[C@H](CCC(=O)[*:2])N[*:1]; AEEA = NCCOCCOCC(=O)O
Experiments:
[1] = ASSAY (IV) determination of solubility; format: physicochemical
Procedure, shortened: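 Dissolve polypeptide in water ([…] stock); combine 1:1 with each 100 mM buffer (glycylglycine pH 3.0/4.0/5.0; bistrispropane pH 6.0/6.5/7.0/7.5/8.0); hold 18 hours at room temperature; centrifuge; quantify polypeptide by UPLC.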

[2] = biological target: T1, human calcitonin (a) receptor in BHK570 cells (Homo sapiens, UniProt P30988); test: ASSAY (II)a functional assay, human calcitonin receptor (CRE luciferase); format: cell-based; settings: read-out: hCTR funct. EC50
T1 construct: expressed in transfected cells
T1 sequence (P30988 25-474): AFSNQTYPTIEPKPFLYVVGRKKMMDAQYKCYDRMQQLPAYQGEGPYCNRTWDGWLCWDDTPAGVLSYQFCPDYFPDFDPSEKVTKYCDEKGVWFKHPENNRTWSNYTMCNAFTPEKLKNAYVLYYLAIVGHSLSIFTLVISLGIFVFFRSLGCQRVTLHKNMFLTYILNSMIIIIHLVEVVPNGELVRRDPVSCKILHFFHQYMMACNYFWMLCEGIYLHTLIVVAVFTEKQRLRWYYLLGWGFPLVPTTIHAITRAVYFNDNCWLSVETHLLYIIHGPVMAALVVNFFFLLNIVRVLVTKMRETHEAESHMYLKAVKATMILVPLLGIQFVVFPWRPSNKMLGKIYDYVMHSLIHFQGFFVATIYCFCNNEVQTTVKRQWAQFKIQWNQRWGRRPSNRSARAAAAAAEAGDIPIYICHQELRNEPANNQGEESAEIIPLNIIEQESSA
Procedure, shortened: (§1)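 BHK CRE-luc cells, calcitonin (a) receptor ± RAMP-3 (amylin 3(a)); overnight seeding, 37° C/5% CO2. 3 h ligand exposure, DMEM/10% FBS/10 mM Hepes pH 7.4. LucLite 30 min RT; luminescence (SPC).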

[3] = biological target: T2, human amylin receptor (membranes from Amylin 3(a)/CRE-luc cells) (Homo sapiens, UniProt O60896+P30988); test: ASSAY (V) binding to the human amylin receptor (SPA, 125I-rat amylin); settings: for IC50: Table 4, read-out: hAmylin-R bind IC50;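 for all read-outs here: competition binding of cell membranes (35 ng/µL) mixed with SPA beads in 384-well plates at 40 µL total volume, read by scintillation counting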
T2 construct: expressed in transfected cells
T2 sequence (P30988 25-474): T1 sequence (P30988 25-474)
T2 sequence (O60896 24-148 partner): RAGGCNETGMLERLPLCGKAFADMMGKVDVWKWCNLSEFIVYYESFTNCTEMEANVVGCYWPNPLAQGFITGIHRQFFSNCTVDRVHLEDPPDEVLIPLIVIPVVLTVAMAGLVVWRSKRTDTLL

[4] = biological target: T3, human calcitonin receptor (Homo sapiens, UniProt P30988); test: ASSAY (VII) binding to the human calcitonin receptor (SPA, 125I-Calcitonin); settings: read-out: hCTR bind IC50;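 note: cell membranes (35 ng/µL) combined with SPA beads in 40 µL of pH 7.4 Hepes buffer, 384-well format, signal counted on a TopCounter instrument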
T3 construct: expressed in transfected cells
T3 sequence (P30988 25-474): T1 sequence (P30988 25-474)

[5] = biological target: T4, human amylin 3(a) receptor (human calcitonin receptor + RAMP-3) in BHK570 cells (Homo sapiens, UniProt O60896+P30988); test: ASSAY (II)a functional assay, human amylin receptor (CRE luciferase); format: cell-based; settings: for EC50: human amylin receptor functional potency, assay (II), read-out: hAmylin-R funct. EC50
T4 construct: expressed in transfected cells
Procedure, shortened: as §1

[6] = bistrispropane buffer, pH 6.5, read-out: Solubility pH 6.5 Concentration
[7] = bistrispropane buffer, pH 7.5, read-out: Solubility pH 7.5 Concentration
[8] = bistrispropane buffer, pH 6.0, read-out: Solubility pH 6.0 Concentration
[9] = bistrispropane buffer, pH 7.0, read-out: Solubility pH 7.0 Concentration
[10] = bistrispropane buffer, pH 8.0, read-out: Solubility pH 8.0 Concentration
[11] = glycylglycine buffer, pH 3.0, read-out: Solubility pH 3.0 Concentration
[12] = glycylglycine buffer, pH 4.0, read-out: Solubility pH 4.0 Concentration
[13] = glycylglycine buffer, pH 5.0, read-out: Solubility pH 5.0 Concentration
[14] = Table 5, selectivity, hCTR bind IC50 / hAmylin-R bind IC50
[15] = Table 7, human binding selectivity, included for comparison
[16] = Table 7a (preferred compounds), human binding selectivity, included for comparison
[17] = human functional selectivity: hCTR funct. EC50 / hAmylin-R funct. EC50
[18] = Table 5a, selectivity, hCTR bind IC50 / hAmylin-R bind IC50
[19] = Table 5b, selectivity, hCTR bind IC50 / hAmylin-R bind IC50
[20] = Table 5c, selectivity, hCTR bind IC50 / hAmylin-R bind IC50
[21] = ratio of human calcitonin receptor binding IC50 to human amylin receptor binding IC50
[22] = hCTR funct. EC50 divided by hAmylin-R funct. EC50
[23] = hCTR funct. EC50 over hAmylin-R funct. EC50

Row | SMILES | solubility at 18 h [1, 6] [µM] | solubility at 18 h [1, 7] [µM] | solubility at 18 h [1, 8] [µM] | solubility at 18 h [1, 9] [µM] | solubility at 18 h [1, 10] [µM] | solubility at 18 h [1, 11] [µM] | solubility at 18 h [1, 12] [µM] | solubility at 18 h [1, 13] [µM] | EC50 [2] [nM] | IC50 [3] [nM] | Ratio hCT/hAmylin binding [3, 14] | Ratio hCT/hAmylin binding [3, 15] | Ratio hCT/hAmylin binding [3, 16] | IC50 [4] [nM] | EC50 [5] [nM] | Ratio hCT/hAmylin funct. [5, 17] | Ratio hCT/hAmylin binding [3, 18] | Ratio hCT/hAmylin binding [3, 19] | Ratio hCT/hAmylin binding [3, 20] | Ratio hCT/hAmylin binding [3, 21] | further results
1 | CC[C@H](C)[C@H](NC(=O)[C@H](C)NC(=O)CNC(=O)[C@H](Cc1ccccc1)NC(=O)[C@H](CC(N)=O)NC(=O)[C@H](CCCCNC(=O)CC[C@H](NC(=O)CC[C@H](NC(=O)CCCCCCCCCCCCCCCCCCC(=O)O)C(=O)O)C(=O)O)NC(=O)[C@H](CO)NC(=O)[C@H](CO)NC(=O)[C@H](Cc1c[nH]cn1)NC(=O)[C@H](CCCNC(=N)N)NC(=O)[C@H](CC(C)C)NC(=O)[C@H](Cc1ccccc1)NC(=O)[C@H](CC(=O)O)NC(=O)[C@H](C)NC(=O)[C@H](CC(C)C)NC(=O)[C@H](CCCNC(=N)N)NC(=O)[C@H](CCC(N)=O)NC(=O)[C@@H](NC(=O)[C@H](C)NC(=O)[C@@H]1CSSC[C@H](NC(=O)[C@@H](N)CCCCN)C(=O)N[C@@H](CC(N)=O)C(=O)N[C@@H]([C@@H](C)O)C(=O)N[C@@H](C)C(=O)N[C@@H]([C@@H](C)O)C(=O)N1)[C@@H](C)O)C(=O)N1CCC[C@H]1C(=O)N[C@@H](CO)C(=O)N[C@@H](CO)C(=O)N[C@H](C(=O)N[C@@H](CC(N)=O)C(=O)N[C@H](C(=O)NCC(=O)N[C@@H](CO)C(=O)N[C@@H](CC(=O)O)C(=O)N[C@H](C(=O)N[C@@H](Cc1ccc(O)cc1)C(N)=O)[C@@H](C)O)C(C)C)[C@@H](C)O [Example 59] (H-KCNTATCATQRLADFLRHSSK([γGlu-γGlu-C20 diacid])NFGAIPSSTNVGSDTY-NH2; disulfide 2-7; N-terminus assumed) | ≥ 200 | ≥ 200 | ≥ 200 | ≥ 200 | ≥ 200 | ≥ 200 | ≥ 200 | ≥ 200 | 1.95 | 1.19 | 4.3 | 4.3 | 4.3 | 5.14 | 0.389 | 5.0 | – | – | – | – | –
2 | CC[C@H](C)[C@H](NC(=O)[C@H](C)NC(=O)CNC(=O)[C@H](Cc1ccccc1)NC(=O)[C@H](CC(N)=O)NC(=O)[C@@H]1CCCN1C(=O)[C@H](CO)NC(=O)[C@H](CO)NC(=O)[C@H](Cc1c[nH]cn1)NC(=O)[C@H](CCCNC(=N)N)NC(=O)[C@H](CC(C)C)NC(=O)[C@H](Cc1ccccc1)NC(=O)[C@H](Cc1c[nH]cn1)NC(=O)[C@H](C)NC(=O)[C@H](CC(C)C)NC(=O)[C@H](CCCNC(=N)N)NC(=O)[C@H](CCC(N)=O)NC(=O)[C@@H](NC(=O)[C@H](C)NC(=O)[C@@H]1CSSC[C@H](NC(=O)[C@@H](N)CCCCNC(=O)CC[C@H](NC(=O)CCCCCCCCCCCCCCCCCCC(=O)O)C(=O)O)C(=O)N[C@@H](CC(N)=O)C(=O)N[C@@H]([C@@H](C)O)C(=O)N[C@@H](C)C(=O)N[C@@H]([C@@H](C)O)C(=O)N1)[C@@H](C)O)C(=O)N1CCC[C@H]1C(=O)N[C@@H](CO)C(=O)N[C@@H](CO)C(=O)N[C@H](C(=O)N[C@@H](CC(N)=O)C(=O)N[C@H](C(=O)NCC(=O)N[C@@H](CO)C(=O)N[C@@H](Cc1c[nH]cn1)C(=O)N[C@H](C(=O)N[C@@H](Cc1ccc(O)cc1)C(N)=O)[C@@H](C)O)C(C)C)[C@@H](C)O [Example 66] (H-K([γGlu-C20 diacid])CNTATCATQRLAHFLRHSSPNFGAIPSSTNVGSHTY-NH2; disulfide 2-7; N-terminus assumed) | ≥ 200 | 131 (≈ 580 µg/mL) | ≥ 200 | ≥ 200 | 52 (≈ 230 µg/mL) | ≥ 200 | ≥ 200 | ≥ 200 | 0.542 | 0.396 | 45.5 | 45.5 | 45.5 | 18 | 0.027 | 20.1 | 45.5 | 45.5 | 45.5 | 45.5 | Solubility pH 6.5 Concentration ([1]; pH 6.5 (Table 9a)): ≧200 μM; Solubility pH 7.0 Concentration ([1]; pH 7.0 (Table 9a)): ≧200 μM; Ratio hCT/hAmylin funct. [5, 22]: 20.1; Ratio hCT/hAmylin funct. [5, 23]: 20.1
3 | CC[C@H](C)[C@H](NC(=O)[C@H](C)NC(=O)CNC(=O)[C@H](Cc1ccccc1)NC(=O)[C@H](CC(N)=O)NC(=O)[C@@H]1CCCN1C(=O)[C@H](CO)NC(=O)[C@H](CO)NC(=O)[C@H](Cc1c[nH]cn1)NC(=O)[C@H](CCCNC(=N)N)NC(=O)[C@H](CC(C)C)NC(=O)[C@H](Cc1ccccc1)NC(=O)[C@H](Cc1c[nH]cn1)NC(=O)[C@H](C)NC(=O)[C@H](CC(C)C)NC(=O)[C@H](CCCNC(=N)N)NC(=O)[C@H](CCC(N)=O)NC(=O)[C@@H](NC(=O)[C@H](C)NC(=O)[C@@H]1CSSC[C@H](NC(=O)[C@@H](N)CCCCNC(=O)COCCOCCNC(=O)CC[C@H](NC(=O)CCCCCCCCCCCCCCCCCCC(=O)O)C(=O)O)C(=O)N[C@@H](CC(N)=O)C(=O)N[C@@H]([C@@H](C)O)C(=O)N[C@@H](C)C(=O)N[C@@H]([C@@H](C)O)C(=O)N1)[C@@H](C)O)C(=O)N1CCC[C@H]1C(=O)N[C@@H](CO)C(=O)N[C@@H](CO)C(=O)N[C@H](C(=O)N[C@@H](CC(N)=O)C(=O)N[C@H](C(=O)NCC(=O)N[C@@H](CO)C(=O)N[C@@H](CC(N)=O)C(=O)N[C@H](C(=O)N[C@@H](Cc1ccc(O)cc1)C(N)=O)[C@@H](C)O)C(C)C)[C@@H](C)O [Example 69] (H-K([AEEA-γGlu-C20 diacid])CNTATCATQRLAHFLRHSSPNFGAIPSSTNVGSNTY-NH2; disulfide 2-7; N-terminus assumed) | ≥ 200 | ≥ 200 | ≥ 200 | ≥ 200 | ≥ 200 | ≥ 200 | ≥ 200 | ≥ 200 | 1.25 | 0.133 | 65.3 | 65.3 | 65.3 | 8.68 | 0.094 | 13.3 | 65.3 | 65.3 | 65.3 | 65.3 | Ratio hCT/hAmylin funct. [5, 22]: 13.3; Ratio hCT/hAmylin funct. [5, 23]: 13.3

From patent US9023789B2, “Amylin analogs and pharmaceutical compositions thereof” (Novo Nordisk A/S, priority 2012, dated 2015)
